This is an account of results in patent US12662489B2 (Sitryx Therapeutics Limited, priority 2023, dated 2026).

For assay [1], the target named is T1, MTHFD1 recombinant human enzyme (Homo sapiens, UniProt P11586).
T1 sequence (P11586 2-291 limits assumed): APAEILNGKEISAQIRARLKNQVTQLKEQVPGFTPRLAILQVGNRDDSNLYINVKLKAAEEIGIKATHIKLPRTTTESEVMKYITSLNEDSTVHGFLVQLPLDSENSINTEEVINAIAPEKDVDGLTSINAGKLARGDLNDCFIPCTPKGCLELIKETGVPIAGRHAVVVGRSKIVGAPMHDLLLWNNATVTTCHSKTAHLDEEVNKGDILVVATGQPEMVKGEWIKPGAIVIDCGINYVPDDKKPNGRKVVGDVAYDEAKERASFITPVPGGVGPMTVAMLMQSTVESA
Kind of assay: MTHFD1 inhibition assay (NAD(P)H-Glo luminescence). To be noted: MTHFD1 IC50, recombinant human enzyme 200 nM, NADP, band.

Assay [2] addresses T2, MTHFD2 recombinant human enzyme (Homo sapiens, UniProt P13995).
T2 sequence (P13995 36-350): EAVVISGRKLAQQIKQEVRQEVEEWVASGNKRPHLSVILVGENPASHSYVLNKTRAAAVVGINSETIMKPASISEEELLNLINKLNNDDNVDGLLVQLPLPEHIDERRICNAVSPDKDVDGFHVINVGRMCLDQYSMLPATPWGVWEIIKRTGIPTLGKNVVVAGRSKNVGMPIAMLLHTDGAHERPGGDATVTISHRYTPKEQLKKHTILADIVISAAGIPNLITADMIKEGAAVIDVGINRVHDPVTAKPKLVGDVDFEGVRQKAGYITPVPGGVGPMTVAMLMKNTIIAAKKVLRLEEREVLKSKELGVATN
Nature of the assay: MTHFD2 inhibition assay (NAD(P)H-Glo luminescence). To be noted: for MTHFD1/MTHFD2 IC50 ratio: selectivity of MTHFD2 inhibition over MTHFD1, band.

Consider `COC[C@H]1CN(c2ccc3c4c(c(=O)oc3c2C)CN(C(=O)c2cc(OC3CCCC3)c(C(=O)NS(=O)(=O)N3CCCC3)c(C(F)(F)F)c2)CC4)CCN1C` [Example 107, (R)-2-(cyclopentyloxy)-4-(8-(3-(methoxymethyl)-4-methylpiperazin-1-yl)-7-methyl-5-oxo-1,3,4,5-tetrahydro-2H-chromeno[3,4-c]pyridine-3-carbonyl)-N-(pyrrolidin-1-ylsulfonyl)-6-(trifluoromethyl)benzamide], for which the IC50 in assay [1] was 1000 to 5000 nM. In assay [2], the IC50 lay in the range of 100 to 1000 nM and the “MTHFD1/MTHFD2 IC50 ratio” value is “G (^ 3 to 9.0)”.

In the case of `CCOc1cc(C(=O)N2CCc3c(c(=O)oc4c(C)c(N5CCN(C)[C@@H](COC)C5)cc(Cl)c34)C2)c(F)cc1C(=O)NS(=O)(=O)N1CC2CCC(C1)O2` [Example 301, N-((8-oxa-3-azabicyclo[3.2.1]octan-3-yl)sulfonyl)-4-(10-chloro-8-((R)-3-(methoxymethyl)-4-methylpiperazin-1-yl)-7-methyl-5-oxo-1,3,4,5-tetrahydro-2H-chromeno[3,4-c]pyridine-3-carbonyl)-2-ethoxy-5-fluorobenzamide], the results for the IC50 in assay [1] and in assay [2] were 100 to 1000 nM and 10 to 100 nM, respectively. Further, in assay [2], the “MTHFD1/MTHFD2 IC50 ratio” value is listed as “J (>30)”.

With `COC[C@H]1CN(c2cc(Cl)c3c4c(c(=O)oc3c2C)CN(C(=O)c2cc(N(C)C)c(C(=O)NS(=O)(=O)N3CC5(COC5)C3)cc2F)CC4)CCN1C` [Example 282, (R)-N-((2-oxa-6-azaspiro[3.3]heptan-6-yl)sulfonyl)-4-(10-chloro-8-(3-(methoxymethyl)-4-methylpiperazin-1-yl)-7-methyl-5-oxo-1,3,4,5-tetrahydro-2H-chromeno[3,4-c]pyridine-3-carbonyl)-2-(dimethylamino)-5-fluorobenzamide], the IC50 fell in the range of 100 to 1000 nM in assay [1] and 10 to 100 nM in assay [2]. In addition, the “MTHFD1/MTHFD2 IC50 ratio” value in assay [2] was “H (>9.0 to 30)”.

On to `COC[C@H]1CN(c2cc(C)c3c4c(c(=O)oc3c2C)CN(C(=O)c2ccc(C(=O)NS(=O)(=O)C3(C)CC3)c(N3CCC[C@@H]3C)c2)CC4)CCN1C` [Example 125, 4-(8-((R)-3-(methoxymethyl)-4-methylpiperazin-1-yl)-7,10-dimethyl-5-oxo-1,3,4,5-tetrahydro-2H-chromeno[3,4-c]pyridine-3-carbonyl)-N-((1-methylcyclopropyl)sulfonyl)-2-((S)-2-methylpyrrolidin-1-yl)benzamide], for which the IC50 in assay [1] is 1 to 10 nM. Besides, in assay [2], the IC50 was in the range of 10 to 100 nM and the “MTHFD1/MTHFD2 IC50 ratio” value was “F (<3)”.

With `COC[C@H]1CN(c2cc(C)c3c4c(c(=O)oc3c2C)CN(C(=O)c2cc(N(C)C)c(C(=O)NS(=O)(=O)C3(C)CC3)cc2C(F)(F)F)CC4)CCN1C` [Example 159, (R)-2-(dimethylamino)-4-(8-(3-(methoxymethyl)-4-methylpiperazin-1-yl)-7,10-dimethyl-5-oxo-1,3,4,5-tetrahydro-2H-chromeno[3,4-c]pyridine-3-carbonyl)-N-((1-methylcyclopropyl)sulfonyl)-5-(trifluoromethyl)benzamide], in assay [1], the IC50 is more than 5000 nM. Also, in assay [2], the IC50 lay in the range of 100 to 1000 nM and the “MTHFD1/MTHFD2 IC50 ratio” value was “H (>9.0 to 30)”.

`COC[C@H]1CN(c2cc(C)c3c4c(c(=O)oc3c2C)CN(C(=O)c2cc(OC)c(C(=O)NS(=O)(=O)N3CCCC3)c(C(F)(F)F)c2)CC4)CCN1C` [Example 154, (R)-2-methoxy-4-(8-(3-(methoxymethyl)-4-methylpiperazin-1-yl)-7,10-dimethyl-5-oxo-1,3,4,5-tetrahydro-2H-chromeno[3,4-c]pyridine-3-carbonyl)-N-(pyrrolidin-1-ylsulfonyl)-6-(trifluoromethyl)benzamide]: the IC50 was 1000 to 5000 nM in assay [1] and 100 to 1000 nM in assay [2]. Also, in assay [2], the “MTHFD1/MTHFD2 IC50 ratio” value is “H (>9.0 to 30)”.

Turning to `COC[C@H]1CN(c2cc(C)c3c4c(c(=O)oc3c2C)CN(C(=O)c2ccc(C(=O)NS(=O)(=O)N(C)C)c(N3CCCC3)c2F)CC4)CCN1C` [Example 70, (R)-N-(N,N-dimethylsulfamoyl)-3-fluoro-4-(8-(3-(methoxymethyl)-4-methylpiperazin-1-yl)-7,10-dimethyl-5-oxo-1,3,4,5-tetrahydro-2H-chromeno[3,4-c]pyridine-3-carbonyl)-2-(pyrrolidin-1-yl)benzamide], the IC50 is 10 to 100 nM in assay [1] and 1 to 10 nM in assay [2]. The “MTHFD1/MTHFD2 IC50 ratio” value in assay [2] is listed as “G (^ 3 to 9.0)”.

In the case of `COC[C@H]1CN(c2cc(C)c3c4c(c(=O)oc3c2C)CN(C(=O)c2ccc(C(=O)NS(=O)(=O)C3(C)CC3)c(N(C)C3CCC3)c2F)CC4)CCN1C` [Example 38, (R)-2-(cyclobutyl(methyl)amino)-3-fluoro-4-(8-(3-(methoxymethyl)-4-methylpiperazin-1-yl)-7,10-dimethyl-5-oxo-1,3,4,5-tetrahydro-2H-chromeno[3,4-c]pyridine-3-carbonyl)-N-((1-methylcyclopropyl)sulfonyl)benzamide], the figures for the IC50 in assay [1] and in assay [2] were 10 to 100 nM and 1 to 10 nM, respectively. Besides, the “MTHFD1/MTHFD2 IC50 ratio” value in assay [2] was “G (^ 3 to 9.0)”.

As for `COC[C@H]1CN(c2cc(C)c3c4c(c(=O)oc3c2C)CN(C(=O)c2ccc(C(=O)NS(=O)(=O)C3(C)CC3)c(OC3C[C@@H]5C[C@@H]5C3)c2F)CC4)CCN1C` (stereo partly drawn) [Example 37, 2-(((1R,3r,5S)-bicyclo[3.1.0]hexan-3-yl)oxy)-3-fluoro-4-(8-((R)-3-(methoxymethyl)-4-methylpiperazin-1-yl)-7,10-dimethyl-5-oxo-1,3,4,5-tetrahydro-2H-chromeno[3,4-c]pyridine-3-carbonyl)-N-((1-methylcyclopropyl)sulfonyl)benzamide], the IC50 in assay [1] was 1 to 10 nM. Also, in assay [2], the half-maximal inhibitory concentration (IC50) is 1 to 10 nM and the “MTHFD1/MTHFD2 IC50 ratio” value was “F (<3)”.

In the case of `COC[C@H]1CN(c2cc(C)c3c4c(c(=O)oc3c2C)CN(C(=O)c2cc(N(C)C)c(C(=O)NS(=O)(=O)N3CCC[C@@H]3C(F)(F)F)cc2F)CC4)CCN1C` [Example 287, 2-(dimethylamino)-5-fluoro-4-(8-((R)-3-(methoxymethyl)-4-methylpiperazin-1-yl)-7,10-dimethyl-5-oxo-1,3,4,5-tetrahydro-2H-chromeno[3,4-c]pyridine-3-carbonyl)-N-(((R)-2-(trifluoromethyl)pyrrolidin-1-yl)sulfonyl)benzamide], the IC50 in assay [1] was in the range of 100 to 1000 nM. Further, in assay [2], the IC50 lay within 10 to 100 nM and the “MTHFD1/MTHFD2 IC50 ratio” value is reported as “H (>9.0 to 30)”.

Regarding `COC[C@H]1CN(c2cc(C)c3c4c(c(=O)oc3c2C)CN(C(=O)c2ccc(C(=O)NS(=O)(=O)N3CCCC3)c(N3C5CCC3CC5)c2F)CC4)CCN1C` [Example 97, (R)-2-(7-azabicyclo[2.2.1]heptan-7-yl)-3-fluoro-4-(8-(3-(methoxymethyl)-4-methylpiperazin-1-yl)-7,10-dimethyl-5-oxo-1,3,4,5-tetrahydro-2H-chromeno[3,4-c]pyridine-3-carbonyl)-N-(pyrrolidin-1-ylsulfonyl)benzamide], the half-maximal inhibitory concentration (IC50) in assay [1] and in assay [2] was 10 to 100 nM in each case. Further, in assay [2], the “MTHFD1/MTHFD2 IC50 ratio” value is listed as “F (<3)”.

Take `COC[C@H]1CN(c2ccc3c4c(c(=O)oc3c2C)CN(C(=O)c2ccc(C(=O)NS(=O)(=O)C3(C)CC3)c(OC3CCC3)c2)CC4)CCN1C` [Example 7, (R)-2-cyclobutoxy-4-(8-(3-(methoxymethyl)-4-methylpiperazin-1-yl)-7-methyl-5-oxo-1,3,4,5-tetrahydro-2H-chromeno[3,4-c]pyridine-3-carbonyl)-N-((1-methylcyclopropyl)sulfonyl)benzamide]: the IC50 in assay [1] was 10 to 100 nM. In assay [2], the IC50 is 10 to 100 nM and the “MTHFD1/MTHFD2 IC50 ratio” value is on record as “F (<3)”.

In the case of `COC[C@H]1CN(c2ccc3c4c(c(=O)oc3c2C)CN(C(=O)c2ccc(C(=O)NS(=O)(=O)N3[C@H](C)CC[C@H]3C)c(OC3CCC3)c2F)CC4)CCN1C` [Example 177, 2-cyclobutoxy-N-(((2R,5R)-2,5-dimethylpyrrolidin-1-yl)sulfonyl)-3-fluoro-4-(8-((R)-3-(methoxymethyl)-4-methylpiperazin-1-yl)-7-methyl-5-oxo-1,3,4,5-tetrahydro-2H-chromeno[3,4-c]pyridine-3-carbonyl)benzamide], the half-maximal inhibitory concentration (IC50) in assay [1] and in assay [2] was 100 to 1000 nM throughout. Also, the “MTHFD1/MTHFD2 IC50 ratio” value in assay [2] is given as “F (<3)”.

Regarding `COC[C@H]1CN(c2cc(C)c3c4c(c(=O)oc3c2C)CN(C(=O)c2ccc(C(=O)NS(=O)(=O)N(C)C)c(N3CCCC(F)(F)C3)c2)CC4)CCN1C` [Example 77, (R)-2-(3,3-difluoropiperidin-1-yl)-N-(N,N-dimethylsulfamoyl)-4-(8-(3-(methoxymethyl)-4-methylpiperazin-1-yl)-7,10-dimethyl-5-oxo-1,3,4,5-tetrahydro-2H-chromeno[3,4-c]pyridine-3-carbonyl)benzamide], the half-maximal inhibitory concentration (IC50) in assay [1] and in assay [2] was 1 to 10 nM in each case. Further, the “MTHFD1/MTHFD2 IC50 ratio” value in assay [2] is on record as “F (<3)”.
